Data reported in patent US8410068B2, “Compounds for the treatment or alleviation of edema, and methods for their use” (Index Pharmaceuticals AB, priority 2007, dated 2013).

Tests used:
[1] = system: arachidonic acid (AA) induced ear edema; experiment: Arachidonic acid (AA) induced ear edema model; format: in vivo, mice; conditions: for AUC reduction (%) AA: 10 μg one single s.c. injection 20 minutes before AA, compared to PBS control; for Peak reduction (%) AA: 10 μg subcutaneously 20 minutes before induction of edema
Experimental: A stock solution of AA was prepared by diluting AA in acetone, 4 mg/10 μL, and was stored frozen at −80° C. A final working solution, 1 mg/10 μL, in acetone was prepared. The working solution was used within one hour after preparation.
(§1) Both outer ears of a non-anesthetized mouse were washed with mild soap (Palmolive, Sweden) using a soft tooth brush, the ears were dried with tissue and cleaned with tissue soaked with acetone. After allowing the acetone to evaporate, TPA or AA was applied on both sides, 10 μL, on each side of the ear with care to cover the whole ear. The mouse was held for 20 seconds to allow the solvent to evaporate.
(§2) The ears of non-anesthetized mice were measured at different time points for up to 96 hours after the TPA was administered, or up to 24 hours for the AA model. The first measurements were done before the edema was induced. The thickness was recorded with a spring loaded dial micrometer (Limit, Thickness Gauge, accuracy 0.01 mm, contact area Ø6 mm, Luna AB, Allingsås, Sweden) in triplicates at all time points per ear.
(§3) The average thickness for both ears on a mouse was calculated and compared to the average thickness of the ears at the starting time point. The value obtained at the start of the experiment was set as 100%. The peak values and area under the curve (AUC) values for the treatment groups were calculated and compared to the inflamed control group, treated with PBS (set as 100%), and expressed as a percentage change (Δ% AUC).
(§4) Area under the curve (AUC) with base line set as 100 was calculated using GraphPad Prism version 4.03 for Windows (GraphPad Software, San Diego Calif. USA, www.graphpad.com).
In addition to the experiments done with the control compounds and IDX0001, all other test compounds were investigated in a similar fashion in the TPA and/or AA ear edema models, where the test compounds were given subcutaneously (10 μg) 20 minutes before induction of edema. The results were expressed as reduction of peak value and reduction of area under curve (AUC) in Table 5.

[2] = system: tetradecanoylphorbol 13-acetate (TPA) induced ear edema; experiment: TPA-induced ear edema model; format: in vivo, mice; conditions: for Reduction of AUC compared to PBS: Study A / FIG. 1, one single injection (i.p. in Study A, s.c. in FIG. 1) 20 min before TPA, day 0; for AUC reduced: Study J; for AUC reduction (%) TPA: 10 μg one single s.c. injection 20 minutes before TPA, compared to PBS control; for Peak reduction (%) TPA: 10 μg subcutaneously 20 minutes before induction of edema; for Differences in AUC: Study L dose response
Experimental: A stock solution of TPA was prepared by dissolving TPA in DMSO, 1 mg/mL, and was stored frozen at −80° C. For study B-E, a working solution was prepared with 200 μL of the TPA stock solution added to 800 μL acetone. The working solution was used the same day as it was prepared.
Each cage was identified by a cage card marked with study number, group number, ethical approval number, sex and animal ear numbers. The animals were individually marked on the tail with transverse lines corresponding to the animals' number, using a permanent-ink felt pen. An illustration of the protocols used for the different treatments is outlined in Table 4. The compounds were tested according to the same protocols with necessary modifications.
Intraperitoneal (i.p.) injections were performed by giving 100 μL in the lower right quadrant of the abdomen. Subcutaneous injections were done with 100 μL in the neck region. Intranasal administration was performed by letting the mouse inhale droplets into the nostrils, total volume 40 μL. All administrations were done on non-anesthetized mice.
as §1
Intraperitoneal injections were given in the lower right quadrant of the abdomen with the animal held in a supine position. Subcutaneous (s.c.) injections were given in the neck of the animals. Intranasal administrations were given to mice held in a slightly reclining position. With an adjustable micro-pipette 40 μL of the test substance was given in droplets on the nostrils and the mouse was allowed to aspirate at free will.
as §2, §3, §4
AUC reduction and P-values were calculated against the positive control (TPA or AA+PBS).

[3] = Study F, equal doses 50 μg s.c. same day as swelling induced
[4] = Study B, 100 μg s.c. 4 days before induction of edema
[5] = Study C (repeat of B), 100 μg s.c. 4 days before induction of edema
[6] = Study D, 100 μg s.c. 2 days before induction of edema
[7] = Study E, 100 μg s.c. same day, approx. 20 min before induction
[8] = Study G, therapeutic, 100 μg s.c. 2 hours after induction of edema
[9] = Study H, 100 μg intranasal 4 days before swelling induced
[10] = Study I, 100 μg intranasal day 0, same day as edema induced
[11] = therapeutic, 100 μg intranasal 2 hours after induction

In the case of O=C1CCN(c2ccccc2)N1 [Phenidone], the “reduction of AUC” value ([1]; FIG. 4, phenidone given 30 min before AA, IDX0150 given 20 min before AA) is reported as −39.1%.
For “T*C*C*A*T*G*A*C*G*T*T*C*C*T*G*A*C*G*T*T [IDX0920]”, the “Reduction of AUC compared to PBS” value ([2]; 50 μg) was −22.1%, the “reduction of AUC” value ([2]; Study B, 50 μg s.c. 4 days before induction of edema) was −19.3% and the “reduction of AUC” value ([2]; Study C (repeat of B), 50 μg s.c. 4 days before induction of edema) was −3%. The “reduction of AUC” value ([2]; Study D, 50 μg s.c. 2 days before induction of edema) was −19.1%, the “reduction of AUC” value ([2]; Study E, 50 μg s.c. same day, approx. 20 min before induction) was −19.4% and the “reduction of AUC” value [2, 3] was −17%. The “reduction of AUC” value ([2]; Study G, therapeutic, 50 μg s.c. 2 hours after induction of edema) was −43.8%, the “reduction of AUC” value ([2]; Study H, 50 μg intranasal 4 days before swelling induced) was −33.8% and the “reduction of AUC” value ([2]; Study I, 50 μg intranasal day 0, same day as edema induced) was −27.3%. It also gave an AUC reduced ([2]; therapeutic, 50 μg intranasal 2 hours after induction) of −28.7%.
In the case of “G*G*G*GCGTCTGCC*G*G*G (GGGGCGTCTGCCGGG; DNA, linkages s3 o8 s3 (s phosphorothioate, o phosphodiester), methylation of C not given here) [IDX9051, oligonucleotide; * = phosphorothioate modification]”, the “AUC reduction (%) AA” value [1] is reported as −67.5%, the “Peak reduction (%) AA” value [1] is reported as −17.7% and the “AUC reduction (%) TPA” value [2] is reported as −54.0%. The “Peak reduction (%) TPA” value [2] was −29.5%.
With “T*C*C*GATCGTCC*A*G*G (TCCGATCGTCCAGG; DNA, linkages s3 o7 s3 (s phosphorothioate, o phosphodiester), methylation of C not given here) [IDX9078]” the “AUC reduction (%) AA” value [1] was −79.4%, the “Peak reduction (%) AA” value [1] was −16.4% and the “AUC reduction (%) TPA” value [2] was −41.3%. For the same compound, the “Peak reduction (%) TPA” value [2] was −26.1%.
For “T*C*C*GCGTTCGGCCTCCTGGCG*C*G*G (phosphorothioate linkages, as printed in the source, key not given here) [IDX0001, oligonucleotide; * = phosphorothioate modification]”, the “Reduction of AUC compared to PBS” value ([2]; 100 μg) was −15.7%, the “reduction of AUC” value [2, 4] was −16.3% and the “reduction of AUC” value [2, 5] was −17.9%. The “reduction of AUC” value [2, 6] was −12.4%, the “reduction of AUC” value [2, 7] was −16.7% and the “reduction of AUC” value [2, 3] was −13.2%. The “reduction of AUC” value [2, 8] was −17.9%, the “reduction of AUC” value [2, 9] was −25.7% and the “reduction of AUC” value [2, 10] was −6.4%. For the same compound, the AUC reduced [2, 11] was −25.2%.
In the case of “T*C*C*ATGGTCAGGGTCCCGG*G*G*G (TCCATGGTCAGGGTCCCGGGGG; DNA, linkages s3 o15 s3 (s phosphorothioate, o phosphodiester), methylation of C not given here) [IDX9064, oligonucleotide; * = phosphorothioate modification]”, the “AUC reduction (%) TPA” value [2] is reported as −59.7% and the “Peak reduction (%) TPA” value [2] is reported as −41.7%.
In the case of “G*G*G*GAACAGTTCGTCCAT*G*G*C (phosphorothioate linkages, as printed in the source, key not given here) [IDX0955, oligonucleotide used as control; * = phosphorothioate modification]”, the “Reduction of AUC compared to PBS” value ([2]; 100 μg) is reported as −4.8%, the “reduction of AUC” value [2, 4] is reported as −22.7% and the “reduction of AUC” value [2, 5] is reported as −24.3%. The “reduction of AUC” value [2, 6] was −17.8%, the “reduction of AUC” value [2, 7] was −17.7% and the “reduction of AUC” value [2, 3] was −18.3%. The “reduction of AUC” value [2, 8] was −40.7%, the “reduction of AUC” value [2, 9] was −17.4% and the “reduction of AUC” value [2, 10] was −28.8%. The AUC reduced [2, 11] was −17.2%.
For “G*G*A*ACAGTTGCTCCAT*G*G*C (as printed in the source, key not given here) [IDX0526, negative control, having the CpG motif substituted with a GC]”, the “Differences in AUC” value ([2]; 0.1 μg, one single i.n. (Table 4) day 0) was “+1.24%”, the “Differences in AUC” value ([2]; 100 μg, one single i.n. (Table 4) day 0) was “+6.18%” and the anti-swelling activity ([2]; Study L, 0.1-100 μg) was “no anti-swelling activity”.
“G*G*A*A*C*A*G*T*T*C*G*T*C*C*A*T*G*G*C (as printed in the source, key not given here) [IDX0500]” was tested, and the “reduction of AUC” value ([2]; Study N, 0.005 μg, one single i.n. (Table 4) day 0) was −15%, the “reduction of AUC” value ([2]; Study N, 0.01 μg, one single i.n. (Table 4) day 0) was −15.3% and the “reduction of AUC” value ([2]; Study N, 0.1 μg, one single i.n. (Table 4) day 0) was −18.2%. For the same compound, the “reduction of AUC” value ([2]; Study N, 1 μg, one single i.n. (Table 4) day 0) was −54.1% and the “reduction of AUC” value ([2]; Study O, 10 μg given s.c. on day 0 (Table 4: i.n.)) was −25.5%.
For “T*C*G*TCTGCTTAGTTCGTTA*G*T*T (TCGTCTGCTTAGTTCGTTAGTT; DNA, linkages s3 o15 s3 (s phosphorothioate, o phosphodiester), methylation of C not given here) [IDX9087]”, the “AUC reduction (%) TPA” value [2] was −40.2% and the “Peak reduction (%) TPA” value [2] was “+0.9%”.
In the case of “T*C*C*CAAGATCGTCC*A*G*G (phosphorothioate linkages, as printed in the source, key not given here) [IDX9076, oligonucleotide; * = phosphorothioate modification]”, the “AUC reduction (%) AA” value [1] is reported as −45.7%, the “Peak reduction (%) AA” value [1] is reported as −20.1% and the “AUC reduction (%) TPA” value [2] is reported as −5.1%. For the same compound, the “Peak reduction (%) TPA” value [2] was −2.6%.
For “T*G*C*CATTCGTCGTTCTCGTC*G*T*T (phosphorothioate linkages, as printed in the source, key not given here) [IDX9024, oligonucleotide; * = phosphorothioate modification]”, the “AUC reduction (%) AA” value [1] was −58.5%, the “Peak reduction (%) AA” value [1] was −14.4% and the “AUC reduction (%) TPA” value [2] was −47.3%. The “Peak reduction (%) TPA” value [2] was −30.9%.
